Legend:
[1] = HPLC RCP of 99mTc-labelled benzodiazepinedione derivative kits with L-methionine (Example 4); type: physicochemical; conditions: formulated kits
Experimental: L-methionine was tested for its ability to stabilize a ^99mTc-labelled glycoprotein IIb/IIIa receptor-binding benzodiazepinedione derivative 1-[(carboxyglycyl-glycyl-glycyl-cysteinamide)methyl]-4-(2-carboxyethyl)-7-[(4-amidinophenyl)methyl]-3,4-dihydro-1H-1,4-benzodiazepine-2,5-dione trifluoroacetate, having the structure. [drawing 15]
All formulations were adjusted to pH 7.4 prior to lyophilization.
(§1) The lyophilized kits were radiolabelled with ^99mTc by reconstitution with 1.0 mL technetium ^99mTc sodium pertechnetate (Technelite®) containing approximately 50 mCi ^99mTc and heating in a boiling water bath for 10 minutes.

[2] = HPLC RCP of 99mTc-depreotide with hydrophilic thioether additives (Example 8); type: physicochemical; conditions: for 3.5 hr RCP / 6.5 hr RCP / Initial RCP: 99mTc-depreotide kit, additive 4 mg, heated prep; for effect on 99mTc-labelled peptide radiolabelling yield or stability: 99mTc-depreotide
Experimental: Each hydrophilic thioether was dissolved in water made up at 40 mg/mL and adjusted to pH 7 with HCl or NaOH. […] To the control vials were added 100 μL water.

[3] = HPLC RCP of 99mTc-labelled bisamine bisthiol non-peptide chelator with L-methionine (Example 7); type: physicochemical
Text: The non-peptide chelator was radiolabelled with ^99mTc in the presence and absence of L-methionine using the placebo vial heated preparation procedure as described in Example 6.

[4] = HPLC RCP of 99mTc-depreotide kits with L-methionine (Example 2); conditions: formulated kits stored under normal conditions (≦−10° C.)
Experimental: Lyophilized kit vials were prepared containing depreotide, L-methionine (Met), and other components as described in Table 3. All formulations were adjusted to pH 7.4 prior to lyophilization.
as §1, with “minutes. Some of the formulations were also radiolabelled in a room temperature preparation (allowed to stand at rom temperature 30 minutes following reconstitution).” for “minutes.”

[5] = HPLC RCP of 99mTc-labelled glycoprotein IIb/IIIa receptor-binding peptide with L-methionine (Example 5); type: physicochemical
Experimental: Lyophilized kit vials were prepared containing the peptide (50 μg), sodium glucoheptonate dihydrate (10 mg), stannous chloride dihydrate (50 μg), and edetate disodium dihydrate (100 μg). The formulation was adjusted to pH 7.4 prior to lyophilization.
The lyophilized kits were radiolabelled with ^99mTc in the presence and absence of L-methionine. […] Both vials were then reconstituted with 1.0 mL technetium ^99mTc sodium pertechnetate (Technelite®) containing approximately 50 mCi ^99mTc and allowed to incubate for 30 minutes at room temperature.

CSCC[C@H](N)C(=O)O [L-methionine]
effect on radiolabelling yield and stability of the 99mTc-labelled benzodiazepinedione derivative [1]: increases the radiolabelling yield and the stability | 3.5 hr RCP [2]: 90.4 | 6.5 hr RCP [2]: 89.3 | Initial RCP [2]: 95.0 | effect on radiolabelling yield and stability of a 99mTc-labelled non-peptide chelator [3]: increases the radiolabelling yield and the stability | effect on radiolabelling yield and stability of 99mTc-depreotide [4]: increases the radiolabelling yield and the stability | effect on radiolabelling yield and stability of the 99mTc-peptide [5]: increases the radiolabelling yield and the stability

CSCCC=O [3-(methylthio)propionaldehyde, reference compound]
effect on 99mTc-labelled peptide radiolabelling yield or stability [2]: no effect

CCSCCN [2-(Ethylthio)ethylamine]
effect on 99mTc-labelled peptide radiolabelling yield or stability [2]: increase the radiolabelling yield and the stability | 3.5 hr RCP [2]: 94.2 | 6.5 hr RCP [2]: 93.3 | Initial RCP [2]: 92.8

CSCC[C@H](N)CO [Methioninol, methioninol]
effect on 99mTc-labelled peptide radiolabelling yield or stability [2]: increase the radiolabelling yield and the stability | 3.5 hr RCP [2]: 93.9 | 6.5 hr RCP [2]: 90.7 | Initial RCP [2]: 94.1

CSCC(O)CO (stereo not shown) [3-Methylthio-1,2-propanediol, 3-methylthio-1,2-propanediol]
effect on 99mTc-labelled peptide radiolabelling yield or stability [2]: increase the radiolabelling yield and the stability | 3.5 hr RCP [2]: 84.0 | 6.5 hr RCP [2]: 80.9 | Initial RCP [2]: 89.1

C[S+]([O-])CC[C@H](N)C(=O)O (stereo partly shown) [Methionine sulfoxide, reference compound]
effect on 99mTc-labelled peptide radiolabelling yield or stability [2]: no effect

CS(=O)(=O)CC[C@H](N)C(=O)O [methionine sulfone, reference compound]
effect on 99mTc-labelled peptide radiolabelling yield or stability [2]: no effect

— patent publication US20040058984A1, “Stabilization of radiopharmaceutical compositions using hydrophilic thioethers and hydrophilic 6-hydroxy chromans” (priority 2003, published 2004)
